In patent publication US20040248809A1, “Use of antagonists of the bradykinin B2 receptor for the treatment of osteoarthrosis” (Aventis Pharma Deutschland GmbH, priority 2003, published 2004):

Test system: MMP3 expression in the chondrosarcoma cell line SW1353
Assay: MMP-3 release from SW cells (MMP3 ELISA of cell culture supernatant)
Type: cell-based
Settings: for MMP-3 release MW (OD 450 nm) / Relative values based on starting value: SW cells; for Relative values based on starting value: IL1α alone = 100
Procedure: For the analysis of the disease-modifying action of HOE140 in a cell culture model relevant to cartilage, the MMP3 expression was analyzed in the chondrosarcoma cell line SW1353 (ATCC: HTB 94). For the experiments, SW1353 cells were cultured under standard conditions (37° C., 5% CO2) in DMEM-Glutamax with 10% of fetal calf serum (FCS) in plastic culture bottles. After detrypsinization of the cells, 50,000 cells were inoculated per well of a 96-well flat-bottom plate in medium without FCS and preincubated with the compound HOE140 in an incubator. After one hour, the cells were stimulated by addition of human IL1-β (0.1 ng/mL, Roche) in a total volume of 300 μL. After incubation for 24 hours under standard conditions, the cell culture supernatant was taken off, centrifuged for 5 minutes and frozen at −20° C. until further analysis. The MMP3 expression in the cell culture supernatants was then analyzed by means of a commercial MMP3 ELISA test system (Amersham) according to the instructions of the manufacturer. In parallel to this, a WST cytotoxicity test was carried out with the remaining cells. For this the commercial test system of Roche was used and the measurement was carried out according to the instructions of the >manufacturer's protocol. […] Bradykinin increases the MMP3 release by more than 30%.

[1] = IL1α + bradykinin (0.1 μM) + 0.05 μM HOE140
[2] = IL1α + bradykinin (0.1 μM) + 0.1 μM HOE140
[3] = IL1α + bradykinin (0.1 μM) + 0.5 μM HOE140
[4] = IL1α + bradykinin (0.1 μM) + 1 μM HOE140

D-arginyl-L-arginyl-L-prolyl-L-prolylglycyl-3-(2-thienyl)-L-alanyl-L-seryl-(3R)-1,2,3,4-tetrahydro-3-isoquinolinecarbonyl-(2S,3aS,7aS)-octahydro-1H-indole-2-carbonyl-L-arginine [HOE140]
inhibition of the bradykinin-increased release of MMP3 (in words) (SW1353 cells, IL1 + bradykinin): inhibited by HOE140 in a dose-dependent manner
MMP-3 release MW (OD 450 nm) [1]: 458 OD 450 nm
Relative values based on starting value [1]: 139.6
MMP-3 release MW (OD 450 nm) [2]: 371 OD 450 nm
Relative values based on starting value [2]: 113.1
MMP-3 release MW (OD 450 nm) [3]: 309 OD 450 nm
Relative values based on starting value [3]: 94.2
MMP-3 release MW (OD 450 nm) [4]: 306 OD 450 nm
Relative values based on starting value [4]: 93.3
